According to PMC9570017, “Unorthodox PCNA Binding by Chromatin Assembly Factor 1” (International Journal of Molecular Sciences, 2022):

Key:
[1] = biological target: T1, human PCNA (Homo sapiens, UniProt P12004); assay: Isothermal titration calorimetry (ITC), PIP peptide titrated into wild-type PCNA; format: binding
T1 construct: His6 (C); made in house; host or cells: E. coli Codon Plus BL21(DE3) pLysS
Description: The wild-type and R426D peptides were expressed as GST fusions in E. coli, purified to homogeneity (see Materials and Methods) and used in isothermal titration calorimetry (ITC) assays with human PCNA purified from E. coli.
Recombinant PCNA, PCNA-Y250I, and the PIP peptides (wild-type, R426D) were expressed and purified as described in the Supplementary Materials section—“Expression and purification of recombinant proteins”. The proteins were dialyzed against three 4-litre changes of ITC buffer containing 10 mM sodium phosphate, pH 7.0, and 10 mM NaCl at 4 °C overnight. The concentrations of PCNA and PIP peptides were determined by measuring tyrosine absorption at A280nm. ITC titrations of peptides into PCNA were performed at 23 °C in the ITC buffer (10 mM sodium phosphate, pH 7.0, 10 mM NaCl) using a MicroCal VP-ITC system. The concentrations of injected wild-type and mutant PIP in the syringe varied from 200 to 500 μM, whereas PCNA in the ITC sample cell varied depending on the experiment from 20 to 50 μM PCNA monomer. The protein and peptide samples were degassed before the ITC run. Data analysis was performed using the MicroCal Origin 7.0 software (OriginLab Corporation, Northampton, MA, USA) and all experiments fit the single binding site model.
Supplementary Materials-Expression and purification of recombinant proteins
S1. Expression and purification of GST-PIP fusion proteins in Escherichia coli Wild-type p150 PIP and R426D peptides were constructed as GST-fusion proteins with a tyrosine at the C-terminus of the peptide. The C-terminal tyrosine was added to aid in peptide detection during the purification by measuring the absorbance at 280 nm. The DNA fragments encoding the GST fusion proteins were inserted into a pGEX-TEV vector, which is essentially a modified pGEX-2T vector where the thrombin cleavage site was replaced with a TEV cleavage site. The pGEX-TEV plasmid was digested with BamHI and EcoRI and ligated to DNA fragments encoding either the p150 PIP wild-type and R426D. The plasmids pGEX-TEV-PIP wild type and pGEX-TEV-PIP R426D were con-firmed by DNA sequencing and then expressed in Escherichia coli host strain TOPP2 (Strat-agene) with 100 µg/ml ampicillin to saturation at 37°C. The next day, the saturated cells were diluted to 0.05 OD measured at A600 nm and the cells were grown at 37°C until the cells reach the mid-exponential phase of 0.6-0.8 at OD A600 nm. The cells were then in-duced with 1 mM isopropyl-D-thiogalactopyranoside (IPTG) for 4 h. Eight litres of cell culture were grown each for the wild-type and R426D mutant. The cells were then har-vested by centrifugation in an Avanti J-26XP high-performance centrifuge from Beckman Coulter with a fixed angle rotor (JLA-8.1000) at 9000 x g for 30 min at 4°C. The pellet from 1 litre cells equivalent was lysed in 10 ml of lysis buffer containing 20 mM Tris pH 7.5, 1 M NaCl, 0.2 mM EDTA, 1 mM DTT, 50 µg/ml lysozyme, 1 mM AEBSF and one tablet of cOmplete™ Mini EDTA-free Protease Inhibitor Cocktail Tablets (Roche). The cell pellet was sonicated in the lysis buffer on ice, at power output level 4 with 10 seconds pulse on and 30 seconds off at 6 watts using a Misonix 3000 Ultrasonic cell disruptor and wider probe. The lysate was clarified by centrifugation for 30 min in an Avanti J-26XP with a fixed angle rotor 25.50 at 30966 x g at 4°C. The clarified supernatant was incubated on a nutator for 6 h at 4°C with 10 ml of glutathione-Sepharose (GSH) resin (Amersham) pre-washed and equilibrated with lysis buffer. After incubation the GSH resin was pelleted, the unbound supernatant was removed, and the resin was washed thrice with lysis buffer and twice with Tobacco Etch Virus (TEV) protease buffer (20 mM sodium phosphate pH 6.5, 50 mM NaCl, 2 mM DTT). The peptide was cleaved from the GSH resin by incubating in the presence of TEV protease overnight at 4°C. The next day, the supernatant was har-vested by centrifugation, and the GSH resin was washed twice with 20 mM sodium phos- […]

[2] = tested on: PCNA-Y250I; assay: Isothermal titration calorimetry (ITC), wild-type PIP titrated into PCNA-Y250I; format: binding, human; conditions: 23 °C, 10 mM sodium phosphate, pH 7.0, 10 mM NaCl
Description: Recombinant PCNA, PCNA-Y250I, and the PIP peptides (wild-type, R426D) were expressed and purified as described in the Supplementary Materials section—“Expression and purification of recombinant proteins”. The proteins were dialyzed against three 4-litre changes of ITC buffer containing 10 mM sodium phosphate, pH 7.0, and 10 mM NaCl at 4 °C overnight. The concentrations of PCNA and PIP peptides were determined by measuring tyrosine absorption at A280nm. ITC titrations of peptides into PCNA were performed at 23 °C in the ITC buffer (10 mM sodium phosphate, pH 7.0, 10 mM NaCl) using a MicroCal VP-ITC system. The concentrations of injected wild-type and mutant PIP in the syringe varied from 200 to 500 μM, whereas PCNA in the ITC sample cell varied depending on the experiment from 20 to 50 μM PCNA monomer. The protein and peptide samples were degassed before the ITC run. Data analysis was performed using the MicroCal Origin 7.0 software (OriginLab Corporation, Northampton, MA, USA) and all experiments fit the single binding site model. […]
S1. […] The C-terminal tyrosine was added to aid in peptide detection during the purification by measuring the absorbance at 280 nm. […] The next day, the saturated cells were diluted to 0.05 OD measured at A600 nm and the cells were grown at 37°C until the cells reach the mid-exponential phase of 0.6-0.8 at OD A600 nm. […]

[3] = Size exclusion chromatography of PCNA-Y250I; format: physicochemical
Description: S3. Expression and purification of wild-type and mutant PCNA proteins in Escherichia […]
PCNA wild-type and mutants were expressed and purified as previously reported. In short, wild-type or mutant plasmids in pET23-C-His6-PCNA vectors were trans-formed and expressed in Codon Plus BL21(DE3) pLysS E. coli (Stratagene) cells. Single colonies were inoculated and grown overnight in the Luria-Bertani medium containing 100 µg/mL ampicillin to saturation at 37°C. The next day the cells were diluted and grown to mid-exponential phase (0.6-0.8) at OD600 nm, and the expression was induced with 1 mM isopropyl-β-D-thiogalactopyranoside (IPTG) for 4 h. PCNA mutants were transformed and expressed in a similar way.
Cells were spun in an Avanti J-26XP high performance centrifuge from Beckman Coul-ter with a fixed angle rotor (JLA-8.1000) at 9000 x g for 30 min at 4°C and the pellets from 1 litre of cell culture were resuspended in 50 mL of lysis buffer containing 50 mM sodium phosphate pH 8.0, 150 mM NaCl, 10% glycerol, 20 mM imidazole, 0.02% nonidet P-40, 2 mM DTT. […]
The eluate was subsequently purified with a Superdex™ 200 gel filtration column (GE Healthcare) in gel filtration buffer 20 mM Tris pH 7.5, 150 mM NaCl, 1 mM DTT. The fractions corresponding to PCNA homotrimer were pooled, concentrated with an amicon concentrator with 3 kDa MWCO, quantified using absorbance at A280 nm, and stored at - […]

[4] = ITC at 296 K, 10 mM Na-phosphate (pH 7.0), 10 mM NaCl

T1 sequence (P12004 whole entry): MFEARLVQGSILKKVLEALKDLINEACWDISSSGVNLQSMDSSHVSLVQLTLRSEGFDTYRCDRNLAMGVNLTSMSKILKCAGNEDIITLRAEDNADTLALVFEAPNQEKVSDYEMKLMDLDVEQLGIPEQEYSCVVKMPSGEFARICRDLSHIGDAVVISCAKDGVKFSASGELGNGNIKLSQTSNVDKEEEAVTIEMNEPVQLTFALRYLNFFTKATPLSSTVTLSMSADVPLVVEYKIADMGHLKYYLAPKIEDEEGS

Substance	N (stoichiometry of peptide binding per PCNA monomer) [1, 4]	ΔG [1, 4]	ΔH [1, 4]	ΔS [1, 4]	Kd ([1]; ITC at 296 K, 10 mM Na-phosphate (pH 7.0), 10 mM NaCl, one binding site per PCNA monomer, PIP 200 to 500 μM in syringe, PCNA 20 to 50 μM monomer)	stoichiometry (PIP per PCNA monomer) ([1]; ITC, 23 °C, 10 mM sodium phosphate, pH 7.0, 10 mM NaCl)	heat exchange / binding to PCNA-Y250I [2]	aggregation [3]
KAEITRFF [CAF-1 PIP wild type, wild-type p150 PIP expressed as GST fusion with C-terminal tyrosine, TEV-cleaved and purified, used for ITC]	0.83	-6.25 kcal/mol	-1.868 kcal/mol	14.8 cal K^−1 mol^−1	24 µM	0.83	no detectable heat exchange observed by ITC	
PCNA-Y250I: PCNA mutated at the tyrosine involved in the cation-π interaction with CAF-1 p150 Arg426								no evidence of aggregation
